{"source": "patent US6852696B2", "about": "“Inhibitors of glycosaminoglycans” (The University of Texas System, priority 1999, dated 2005)", "key": {"[1]": {"test_system": "HA", "conditions": "co-pending application 60/126,475; cited from earlier work"}, "[2]": {"test_system": "XS52 DC", "assay": "Cytokine secretion by XS52 DC stimulated with HA fragments (ELISA)", "type": "cell-based", "conditions": "500 μg/ml; HA fragments 50 μg/ml", "description": "FIGS. 5A-C. Impact of Pep-1 on HA degradation products. (FIG. 5A) 96 well plates were coated with biotinylated-HA (0.1 μg/ml) and pretreated with 500 μg/ml of Pep-1 (open circles), RP (closed circles), or PBS alone (triangles) for 3 hours. These plates were then incubated for 30 min in the presence of HAase (from bovine testis). After extensive wash, the amounts of remaining biotinylated HA on the plates were determined by addition of streptavidin-alkaline phosphatase followed by p-nitrophenyl phosphate substrate. The % HA digestion was calculated from the optical densities. The data shown are the means+/−s.e.m.from triplicate samples analyzed with a hyperbolic model. (FIG. 5B) The impact of Pep-1 on HA digestion and on cell adhesion was examined in parallel using the HA-coated plates prepared simultaneously. Pep-1, RP, or PBS alone was added to the HA-coated plates as above and their effects on HAase-mediated HA degradation and on the adhesion of ^35S-labeled BW5147 thymoma cells were compared. The data shown are the means+/−s.e.m.(n=3) of 50% inhibition doses of HAase (left) and % cell adhesion (right). […] (FIG. 5C) Low molecular weight HA fragments were prepared by sonication of HMW HA followed by overnight digestion with HAase at 37° C. […] Results are expressed as the means+/−s.e.m.from triplicate samples. […]"}, "[3]": {"test_system": "HA", "conditions": "co-pending application 60/126,475; cited from earlier work", "remark": "listed apart in the source"}, "[4]": {"test_system": "HA", "assay": "Adhesion of 35S-labeled B16-F10 melanoma cells to HA-coated plates", "type": "cell-based, mouse", "description": "Three different Pep-1 derivatives were compared for their biological activities at the same concentration in terms of the molarity (150 μM) of the 16-mer Pep-1 peptide sequence. […] Data shown are the means+/−S.D. of % binding from quadruplicate samples. Asterisks indicate statistically significant differences (**p<0.01 by two-tailed Student's t-test).\nFIGS. 9A-G. DC-associated HA and DC-dependent T cell proliferation. (A) DO11.10 T cells were cultured with y-irradiated splenic DC and/or OVA323-339 (2 μg/ml) in the presence of intact bPG (250 μg/ml), heat-denatured bPG, or PBS alone. Data shown are the means+/−s.d. (n=3) of ^3H-thymidine uptake. (B) DO11.10 T cells were cultured with the indicated numbers of splenic DC and OVA323-339 in the presence of Pep-1 (300 μM) (open circles), RP (closed circles), or PBS alone (squares). (C) Pep-1 (open circles) or PEG-conjugated Pep-1 (open triangles) were compared at the indicated concentrations (in terms of the molarity of the 12-mer Pep-1 sequence) for their abilities to inhibit the adhesion of ^35S-labeled B16 melanoma cells onto the HA-coated plates (Mummert et al. J. Exp. Med. 192:769-779, 2000). […] Statistically significant differences assessed by a two-tailed Student's t-test for comparing two groups or by analysis of variance (ANOVA) followed by LSD for multiple comparisons are indicated by asterisks (*P<0.05, **P<0.01)."}, "[5]": {"test_system": "HA", "assay": "Adhesion of 35S-labeled BW5147 thymoma cells to HA-coated plates", "type": "cell-based", "conditions": "500 μg/ml pretreatment", "description": "FIGS. 1A-B. (FIG. 1A) ^35S-labeled BW5147 thymoma cells were incubated on HA-coated plates (0.1 μg/ml) that had been pretreated with the indicated peptides (500 μg/ml). Data shown are the means+/−S.D. of % binding from quadruplicate samples. (FIG. 1B) FITC-conjugated HA (0.3 μg/ml) was preincubation with the indicated peptide (500 μg/ml) and examined for binding to BW5147 thymoma cells. Data shown are the binding of FITC-conjugated HA in the presence of the indicated peptides (closed histograms) as compared to the background autofluorescence levels (open histograms).\nFIGS. 5A-C. Impact of Pep-1 on HA degradation products. […] After extensive wash, the amounts of remaining biotinylated HA on the plates were determined by addition of streptavidin-alkaline phosphatase followed by p-nitrophenyl phosphate substrate. The % HA digestion was calculated from the optical densities. The data shown are the means+/−s.e.m.from triplicate samples analyzed with a hyperbolic model. […] Results are expressed as the means+/−s.e.m.from triplicate samples.\nTo test the impact of Pep-1 on HA degradation, the present inventors developed a 96 well-based assay in which biotinylated HA was immobilized onto the plates and treated with HAase. The amounts of HA that remained attached to the wells was then determined by addition of streptavidin-conjugated alkaline phosphatase (FIG. 5A)."}}, "note": "“Also recorded” adds a separate entry of the source."}
{"sequence": "GAHWQFNALTVR [Pep-1]", "values": [{"measurement": "binding to HA", "setting": "[1]", "value": "specific binding to soluble, immobilized, and cell-associated forms of HA"}, {"measurement": "inhibition of IL-6 secretion triggered by HA fragments", "setting": "[2]", "value": "inhibited the secretion of both cytokines almost completely"}, {"measurement": "inhibition of TNFα secretion triggered by HA fragments", "setting": "[2]", "value": "inhibited the secretion of both cytokines almost completely"}, {"measurement": "inhibition of leukocyte adhesion to HA substrates", "setting": "[3]", "value": "inhibited leukocyte adhesion to HA substrates almost completely"}, {"measurement": "blocking of B16-F10 adhesion to HA-coated plates", "setting": "[4]", "value": "blocked efficiently"}, {"measurement": "inhibition of HA-mediated cell adhesion", "setting": "[4]; 150 μM in terms of molarity of the Pep-1 peptide sequence", "value": "only modest inhibition"}, {"measurement": "inhibition of BW5147 cell adhesion to HA substrate", "setting": "[5]", "value": "blocked BW5147 cell adhesion; also recorded: significant (p<0.01 by ANOVA) inhibition of cell adhesion"}]}
